# According to paper PMC7048775, “Single-molecule imaging of PI(4,5)P2 and PTEN in vitro reveals a positive feedback mechanism for PTEN membrane binding” (Communications Biology, 2020):
# How the values were obtained:
# PTEN (PTEN-Halo) [1] = biological target: T1, PTEN (PTEN-Halo) (Dictyostelium discoideum, UniProt Q8T9S7, R47A); assay: single-molecule TIRF imaging on supported planar lipid bilayer, dissociation curve; format: binding; conditions: 10 mol% PI(4,5)P2 in DOPC bilayer, pH 8.0, 300 mM NaCl, 21 °C
# PTEN (PTEN-Halo) [2] = biological target: T2, PTEN (PTEN-Halo) (Dictyostelium discoideum, UniProt Q8T9S7); assay: as above; conditions: 10 mol% PI(4,5)P2 in DOPC bilayer, pH 8.0, 300 mM NaCl, 21 °C; membrane dissociation of protein, two binding states; no affinity constant
# T2 sequence (Q8T9S7 1-533): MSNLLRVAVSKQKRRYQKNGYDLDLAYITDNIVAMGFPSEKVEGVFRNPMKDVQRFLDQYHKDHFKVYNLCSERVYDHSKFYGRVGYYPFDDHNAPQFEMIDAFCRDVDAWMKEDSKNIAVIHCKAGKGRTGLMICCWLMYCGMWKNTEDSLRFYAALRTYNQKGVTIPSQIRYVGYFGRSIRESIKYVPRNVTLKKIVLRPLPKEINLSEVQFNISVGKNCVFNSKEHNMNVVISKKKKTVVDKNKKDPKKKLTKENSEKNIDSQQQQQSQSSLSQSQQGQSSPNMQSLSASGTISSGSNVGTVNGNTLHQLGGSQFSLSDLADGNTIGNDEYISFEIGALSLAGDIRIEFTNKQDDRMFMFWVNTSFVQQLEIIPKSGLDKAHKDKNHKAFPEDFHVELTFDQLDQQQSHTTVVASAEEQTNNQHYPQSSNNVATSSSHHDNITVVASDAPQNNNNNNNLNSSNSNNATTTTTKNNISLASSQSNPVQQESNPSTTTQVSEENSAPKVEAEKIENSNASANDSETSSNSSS
# PTEN (PTEN-Halo) [3] = biological target: T1, PTEN (PTEN-Halo); assay: phosphate release, BIOMOL Green, absorbance […] nm; format: biochemical; conditions: 5 nmol substrate in 50 μL, pH 8.0, 2 mM DTT, 21 °C, 2 h
# PTEN (PTEN-Halo) [4] = biological target: PTEN (PTEN-Halo) (Dictyostelium discoideum, UniProt Q8T9S7, K11A/K13A/R14A/R15A); assay: phosphate release, BIOMOL Green, absorbance […] nm; format: biochemical; conditions: 5 nmol substrate in 50 μL, pH 8.0, 2 mM DTT, 21 °C, 2 h
# PTEN (PTEN-Halo) (Dictyostelium discoideum, UniProt Q8T9S7, K11A/K13A/R14A/R15A), sequence (Q8T9S7 whole entry K11A/K13A/R14A/R15A): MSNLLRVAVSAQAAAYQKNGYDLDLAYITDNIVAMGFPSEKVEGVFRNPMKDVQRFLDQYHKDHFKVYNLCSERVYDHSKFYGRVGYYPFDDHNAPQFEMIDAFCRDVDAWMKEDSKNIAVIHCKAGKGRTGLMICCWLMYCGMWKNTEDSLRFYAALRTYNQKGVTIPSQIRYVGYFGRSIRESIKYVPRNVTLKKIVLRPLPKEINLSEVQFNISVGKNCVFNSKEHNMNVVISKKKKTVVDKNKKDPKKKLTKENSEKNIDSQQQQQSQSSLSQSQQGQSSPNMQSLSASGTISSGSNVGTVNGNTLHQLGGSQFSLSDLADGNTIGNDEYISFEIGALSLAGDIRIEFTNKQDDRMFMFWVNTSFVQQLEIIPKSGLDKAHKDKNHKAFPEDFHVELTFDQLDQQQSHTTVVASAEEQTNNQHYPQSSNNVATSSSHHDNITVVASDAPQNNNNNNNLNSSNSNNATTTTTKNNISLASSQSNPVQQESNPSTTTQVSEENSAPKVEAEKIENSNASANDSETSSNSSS
# T1 sequence (Q8T9S7 whole entry R47A): as the sequence (Q8T9S7 whole entry K11A/K13A/R14A/R15A) above, with A11K, A13K, A14R, A15R, R47A counted along it
SMILES,average dissociation rate constant k (PTEN (PTEN-Halo) [1]),average dissociation rate constant k (PTEN (PTEN-Halo) [2]) [s⁻¹],"phosphate release, BIOMOL Green, absorbance 620 nm (PTEN (PTEN-Halo) [3])","phosphate release, BIOMOL Green, absorbance 620 nm (PTEN (PTEN-Halo) [4])"
"CCCCCCCC/C=C\CCCCCCCC(=O)OC[C@H](COP(=O)(O)O[C@@H]1[C@H](O)[C@H](O)[C@@H](OP(=O)(O)O)[C@H](OP(=O)(O)O)[C@H]1O)OC(=O)CCCCCCC/C=C\CCCCCCCC [PI(4,5)P2, 1,2-dioleoyl-sn-glycero-3-phospho-(1′-myo-inositol-4′,5′-bisphosphate)]",both mutants exhibited faster dissociation than wild type,15.9 ± 2.8,,
"CCCCCCCC(=O)OC[C@H](COP(=O)(O)O[C@H]1[C@H](O)[C@@H](OP(=O)(O)O)[C@H](OP(=O)(O)O)[C@@H](OP(=O)(O)O)[C@H]1O)OC(=O)CCCCCCC [diC8-PI(3,4,5)P3]",,,Phosphatase activities of the mutants were comparable to each other,Phosphatase activities of the mutants were comparable to each other
